# In patent publication US20240285552A1 (priority 2020, published 2024):
# Where a name gives a salt, the structure may show the parent alone. Read-outs that look alike come from different tables or passages of the source.
# Key:
# SARS-CoV-2 USA_WA1/2020 = test: microbe, parasite or virus in culture; type: cell-based; details: for inhibition at 30 µM: read-out: inhibition of SARS-CoV-2 induced CPE at maximum concentration
# ACE2 = test: Western blotting, ACE2 expression in A549 cells; type: cell-based, human; details: 50 μm, 24 hrs and 48 hrs
# Experimental: (§1) Western blotting. A549 “Lung” cells (RRID:CVCL_COQ5) were harvested in a radioimmuno precipitation assay (RIPA) buffer (Tris 10 mM pH 7.4, containing 140 mM NaCl, 1 mM EDTA, 1 mM NaF, 0.10% SDS, 0.50% sodium deoxycholate 0.1% NP-40, 1% Triton X-100) in the presence of protease inhibitors (Thermo Fisher) at 24 hrs. and 48 hrs. Protein concentration was determined by was determined using bicinchoninic acid with bovine serum albumin as a standard (Thermo Fisher). Equal amounts of protein were loaded and separated by SDS-PAGE using 10% pre-casted gels (Biorad). Proteins were electroblotted onto nitrocellulose membranes (Bio-Rad). The blots were blocked using 5% (w/v) milk in Tris-buffered saline containing 0.5% (v/v) Tween-20. The membranes were then incubated with different antibodies. Antibodies directed against ACE1 (ab28311) and ACE2 (ab108209) were used and the GAPDH antibody was used as loading control for cell lysates. Primary and secondary antibodies were diluted in Tris-buffered saline containing (0.5% v/v) Tween-20 (TBS-T) supplemented with 5% milk. The bands were visualized by incubating the blots with enhanced chemiluminescence reagent (ECL, Biorad) and visualized using chemidoc. Band intensities were quantified by using imagelab software Biorad.
# ACE1 = test: Western blotting, ACE1 expression in A549 cells; type: cell-based, human; details: 50 μm, 24 hrs and 48 hrs
# Experimental: as §1
# in vitro = details: human, Cytotoxicity CC50, A549 cells, 72 hours
# [1] = test system: SARS CoV-2 nanoluciferase reporter virus; test: microbe, parasite or virus in culture; type: cell-based; details: for IC50: read-out: IC50, viral replication, Nanoluciferase Reporter Virus Assay
# [2] = Severe acute respiratory syndrome coronavirus 2, Vero C1008, Example C (Table 3), read-out: IC 50 against SARS-COV-2 Induced Cytopathic Effect in Vero E6 Cells
# [3] = Severe acute respiratory syndrome coronavirus 2, Vero C1008, Vero E6, Example B, highest concentration tested 30 μM, read-out: IC50 against SARS-CoV-2 infection induced CPE
# [4] = Severe acute respiratory syndrome coronavirus 2, Vero C1008, Example B
smiles,measurement,setting,value
"CN(Cc1cc(Br)cc(Br)c1N)C1CCCCC1 [BHH, Bromhexine hydrochloride]",Concentration at Maximum % Inhibition,SARS-CoV-2 USA_WA1/2020; Example C (Table 3),37.5 µM
same,Maximum Inhibition,SARS-CoV-2 USA_WA1/2020; Example C (Table 3),72.39%
same,IC50,SARS-CoV-2 USA_WA1/2020; [2],~31.6 µM
same,IC50,SARS-CoV-2 USA_WA1/2020; [3],~21.7 µM
same,inhibition at 30 µM,SARS-CoV-2 USA_WA1/2020; [4],~91.1%
same,EC50,"SARS-CoV-2 USA_WA1/2020; Severe acute respiratory syndrome coronavirus 2, Vero C1008, read-out: EC50 values against SARS-CoV-2 (summary statement)",~30 µM
same,change of ACE2 expression,ACE2; hydrochloride,no changes
same,change of ACE2 expression,"ACE2; listed as BBH, hydrochloride",does not affect
same,change of ACE1 expression,ACE1,no changes
"Nc1c(Br)cc(Br)cc1CN[C@H]1CC[C@H](O)CC1 [AMB, 4-[(2-amino-3,5-dibromophenyl)methylamino]cyclohexan-1-ol; hydrochloride]",Concentration at Maximum % Inhibition,SARS-CoV-2 USA_WA1/2020; Example C (Table 3),150 µM
same,Maximum Inhibition,SARS-CoV-2 USA_WA1/2020; Example C (Table 3),49.87%
same,IC50,"SARS-CoV-2 USA_WA1/2020; Example C (Table 3), hydrochloride, read-out: IC 50 against SARS-COV-2 Induced Cytopathic Effect in Vero E6 Cells",> 150 µM
same,IC50,SARS-CoV-2 USA_WA1/2020; [2],≥ 150 µM
same,IC50,SARS-CoV-2 USA_WA1/2020; [3],> 30 µM
same,inhibition at 30 µM,SARS-CoV-2 USA_WA1/2020; [4],14.2%
same,CC50 at 72 h,in vitro,137 µM
same,change of ACE2 expression,ACE2,no changes
same,change of ACE1 expression,ACE1,no changes
same,Concentration at Maximum % Inhibition,"[1]; A549-ACE2, NLRV",300 µM
same,Maximum Inhibition,"[1]; A549-ACE2, NLRV",99.73%
same,IC50,"[1]; Severe acute respiratory syndrome coronavirus 2, A549, 72 h",47 µM
same,IC50,[1]; hydrochloride,47.3 µM
same,Conc. at Max. % Viability,A549 cells,2.34 µM
same,Conc. at Min. % Viability,A549 cells,300 µM
same,Max. Viability,A549 cells,100%
same,Min. Viability,A549 cells,0.14%
same,CC50,"A549 cells; read-out: Cytotoxicity CC50, 72 hours, hydrochloride",137 µM
